{"source": "patent US6803226B2", "about": "“Method of forming an artificial Shiro of Matsutake” (The University of Tokyo, priority 2001, dated 2004)", "system": "Matsutake hyphae (strain Tm 89)", "assay": "Growth of Matsutake hyphae in soil containing Tween 80 additive, determined by ergosterol amount", "format": "cell-based, Tricholoma Matsutake", "details": "Tween 80 additive 1, 2 or 5 wt % vs 0 wt %, 20 wt % of soil, one month incubation at 25±1° C. in the dark, FIG. 1", "experimental": "The culture substrate containing an active principle prepared as described above is put into a sterile container (a Petri-dish, etc.). A hypha solution containing Matsutake hyphae is inoculated into the culture substrate in the sterile container such that the hypha solution is spread throughout the culture substrate. Culture of Matsutake hyphae can be performed at 25±1° C. in the dark. After 1 to 3 month's culture of Matsutake hyphae, a piece of the grown hyphae (i.e., a Shiro) are taken as a sample, and the growth amount of the hyphae is determined based on the amount of ergosterol. Ergosterol can be quantified as follows. After a sample of a Shiro is freeze-dried (EYELA, FDU-830), 1 g of the sample is taken and extracted with 2.5 mL of ethanol (99.5%). The obtained extract is loaded into HPLC (high-performance liquid chromatography; HITACHI, Column L-7300; UV Detector L-7400; Autosampler L-7200; Pump L-7100; Integrator D-7500) to quantify the amount of ergosterol in the extract. With respect to the details of the quantification procedure, reference should be made to Martin et al. (1990) Mycol. Res. 94: 1059-1064. About one week after the initiation of the culture, it is observed that the hyphae are grown on the surface of the culture substrate. About 4 weeks after the initiation of the culture, increase in the growth amount of the hyphae is found. […]"}
{"smiles": "CCCCCCCC/C=C\\CCCCCCCC(=O)OCCOCC(OCCO)C1OCC(OCCO)C1OCCO", "note": "(stereo not shown) [Tween 80, Polyoxyethylene (20) Sorbitan Monooleate]", "values": [{"measurement": "growth of Matsutake hyphae (amount of ergosterol)", "value": "significantly enhanced"}]}
